Key:
[1] = target: T1, human β2 adrenergic receptor (Homo sapiens, UniProt P07550); test: Radioligand binding assay for human β2 adrenergic receptor; conditions: displacement of [3H]-dihydroalprenolol, CHO cell membranes
T1 construct: expressed in transfected cells

M3 muscarinic receptor = target: T2, M3 muscarinic receptor (Homo sapiens, UniProt P20309); test: Radioligand binding assay for muscarinic receptors; conditions: displacement of [3H]-NMS, CHO cell membranes
T2 construct: expressed in transfected cells
Method: CHO cell lines stably expressing cloned human hM1, hM2, hM3 and hM4 muscarinic receptor subtypes, respectively, were grown to near confluency in HAM's F-12 media supplemented with 10% FBS and 250 μg/mL Geneticin. The cells were grown in a 5% CO2, 37° C. incubator and lifted with 2 mM EDTA in dPBS. […] For membrane preparation, cell pellets were resuspended in lysis buffer and homogenized with a Polytron PT-2100 tissue disrupter (Kinematica AG; 20 seconds×2 bursts). Crude membranes were centrifuged at 40,000×g for 15 minutes at 4° C. The membrane pellet was then resuspended with resuspension buffer and homogenized again with the Polytron tissue disrupter.

[2] = target: T1, human β2 adrenergic receptor; test: Whole-cell cAMP Flashplate assay with lung epithelial cell line (BEAS-2B) endogenously expressing human β2 adrenergic receptor; format: cell-based; conditions: BEAS-2B cells
[3] = target: T1, human β2 adrenergic receptor; test: Whole-cell cAMP Flashplate assay in CHO cell lines heterologously expressing human β2 adrenergic receptor; format: cell-based; conditions: CHO-K1 cells
Method: Cells were rinsed with PBS and detached in dPBS (Dulbecco's Phosphate Buffered Saline, without CaCl2 and MgCl2) containing 2 mM EDTA or Trypsin-EDTA solution (0.05% trypsin/0.53 mM EDTA). […] About 60,000 to 80,000 cells per well were used in this assay. Test compounds (10 mM in DMSO) were diluted into PBS containing 0.1% BSA in Beckman Biomek-2000 and tested at 11 different concentrations ranging from 100 μM to 1 pM.

T1 sequence (P07550 whole entry): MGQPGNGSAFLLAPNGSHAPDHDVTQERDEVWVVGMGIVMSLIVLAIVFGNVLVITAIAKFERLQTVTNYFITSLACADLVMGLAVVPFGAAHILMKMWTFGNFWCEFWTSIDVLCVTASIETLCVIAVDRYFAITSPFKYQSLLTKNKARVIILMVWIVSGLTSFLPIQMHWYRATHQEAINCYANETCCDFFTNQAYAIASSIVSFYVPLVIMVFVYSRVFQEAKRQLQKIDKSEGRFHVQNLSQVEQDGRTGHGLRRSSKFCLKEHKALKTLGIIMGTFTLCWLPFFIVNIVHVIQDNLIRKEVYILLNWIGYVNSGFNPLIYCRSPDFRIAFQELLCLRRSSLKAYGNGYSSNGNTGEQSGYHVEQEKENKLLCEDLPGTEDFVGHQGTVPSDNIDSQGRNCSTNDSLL
T2 sequence (P20309 whole entry): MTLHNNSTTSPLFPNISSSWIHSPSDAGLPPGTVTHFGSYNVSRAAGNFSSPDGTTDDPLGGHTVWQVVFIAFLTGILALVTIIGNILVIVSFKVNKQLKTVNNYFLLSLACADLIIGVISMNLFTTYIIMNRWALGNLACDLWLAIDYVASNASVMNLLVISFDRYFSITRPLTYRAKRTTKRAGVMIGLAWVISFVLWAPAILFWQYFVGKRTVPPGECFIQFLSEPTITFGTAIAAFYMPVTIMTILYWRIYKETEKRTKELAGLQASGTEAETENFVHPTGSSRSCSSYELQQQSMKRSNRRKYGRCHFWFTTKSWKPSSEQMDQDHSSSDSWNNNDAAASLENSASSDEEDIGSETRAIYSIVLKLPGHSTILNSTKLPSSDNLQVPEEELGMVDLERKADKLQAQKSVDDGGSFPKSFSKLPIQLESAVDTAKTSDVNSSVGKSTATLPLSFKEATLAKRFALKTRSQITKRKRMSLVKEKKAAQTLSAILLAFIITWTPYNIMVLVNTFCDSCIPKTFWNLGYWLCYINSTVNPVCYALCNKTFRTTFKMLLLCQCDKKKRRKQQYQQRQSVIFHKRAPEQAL

O=C(CCN1CCC(OC(=O)Nc2ccccc2-c2ccccc2)CC1)NCCCCCNC[C@H](O)c1ccc(O)c2[nH]c(=O)ccc12 [Example 6, Biphenyl-2-ylcarbamic Acid 1-(2-{5-[(R)-2-Hydroxy-2-(8-hydroxy-2-oxo-1,2-dihydroquinolin-5-yl)ethylamino]pentylcarbamoyl}ethyl)piperidin-4-yl Ester, Ditrifluoroacetate]
< 10 nM: Ki [1] | Ki (M3 muscarinic receptor) | EC50 [2] | EC50 [3]

Source: patent US20040209915A1, “Library of biphenyl derivatives” (priority 2003, published 2004)
